Laboratory results as given in ChEMBL document CHEMBL1124888 (J Med Chem, 1990).

Legend:
Rattus norvegicus [1] = test: Hyperactivity by regression analysis, through intraperitoneal route of administration; type: functional; details: ip
Rattus norvegicus [2] = test: Stereotypies was scored by regression analysis, through intraperitoneal route of administration; type: functional; details: ip
D(2) dopamine receptor = D(2) dopamine receptor (Rattus norvegicus, UniProt P61169); test: The affinity for the Dopamine receptor D2 was assessed by the inhibition of [3H]-spiperone binding in rat striatal membranes in vitro.; type: cell membranes, Membrane
Sequence of D(2) dopamine receptor (P61169 whole entry): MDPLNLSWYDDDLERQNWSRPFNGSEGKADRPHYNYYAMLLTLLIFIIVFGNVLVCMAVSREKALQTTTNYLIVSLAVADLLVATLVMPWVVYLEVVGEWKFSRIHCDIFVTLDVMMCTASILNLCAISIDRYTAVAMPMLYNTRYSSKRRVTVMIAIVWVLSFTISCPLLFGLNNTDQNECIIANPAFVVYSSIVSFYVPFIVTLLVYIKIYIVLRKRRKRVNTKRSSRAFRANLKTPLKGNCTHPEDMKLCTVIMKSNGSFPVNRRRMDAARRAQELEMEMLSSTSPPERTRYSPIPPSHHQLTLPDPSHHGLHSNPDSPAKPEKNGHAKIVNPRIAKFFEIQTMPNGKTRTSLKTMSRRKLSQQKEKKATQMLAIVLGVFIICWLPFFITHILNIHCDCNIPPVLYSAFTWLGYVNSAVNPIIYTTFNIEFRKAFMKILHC

SMILES	ED50 (Rattus norvegicus [1]) [µmol/kg]	ED50 (Rattus norvegicus [2]) [µmol/kg]	IC50 (D(2) dopamine receptor) [nM]
CCN1CCC[C@H]1CNC(=O)c1c(O)c(Br)cc(OC)c1OC	0.009	0.049	
COc1cc(Br)cc(C(=O)NC2CCN(Cc3ccccc3)CC2)c1OC	0.28	0.24	5
CCN1CCCC1CNC(=O)c1cc(Br)cc(OC)c1O (stereo unspecified)			8210
CCN1CCCC1CNC(=O)c1cc(Br)cc(O)c1OC (stereo unspecified)	1.2	2.1	10
CCN1CCC[C@H]1CNC(=O)c1c(OC)ccc(Br)c1O	0.054	0.32	
CCN1CCC[C@H]1CNC(=O)c1cc(Br)cc2c1OCCO2	3.8	12.8	46
CCN1CCC[C@H]1CNC(=O)c1cc(Br)cc2c1OCC2	2	4.7	
CCN1CCC[C@H]1CNC(=O)c1cc(Br)cc(OC)c1OC	0.002	0.14	1.2
CCN1CCCC1CNC(=O)c1cc(Br)c(OC)cc1OC (stereo unspecified)	3.2	10.7	44
CCN1CCCC1CNC(=O)c1cccc(OC)c1OC (stereo unspecified)	~10	~10	52
CCN1CCCC1CNC(=O)c1cc(Br)ccc1OC (stereo unspecified)	3	6.7	46
CCN1CCC[C@H]1CNC(=O)c1c(O)c(Cl)cc(Cl)c1OC [RACLOPRIDE]	0.13	1.8	
COc1cccc(C(=O)NC2CC3CCC(C2)N3Cc2ccccc2)c1OC (stereo unspecified)	0.016	0.043	1.7
CCN1CCC[C@@H]1CNC(=O)c1cc(Br)cc(OC)c1OC	> 20	> 20	145
